The results in this text go back to publication PMC3995012, “The Cyanobactin Heterocyclase Enzyme: A Processive Adenylase That Operates with a Defined Order of Reaction” (Angewandte Chemie (International Ed. in English), 2013).

“Also recorded” adds a separate entry of the source. Read-outs that look alike come from different tables or passages of the source.

Test [1] has as its target T1, TruD (uncultured Prochloron sp. 06037A, UniProt B2KYG8).
T1 construct: codon-optimized full-length, N-terminal His6-tag removed by TEV protease, expressed in E. coli BL21 (DE3); homodimer with structural Zn
T1 sequence (B2KYG8 2-781): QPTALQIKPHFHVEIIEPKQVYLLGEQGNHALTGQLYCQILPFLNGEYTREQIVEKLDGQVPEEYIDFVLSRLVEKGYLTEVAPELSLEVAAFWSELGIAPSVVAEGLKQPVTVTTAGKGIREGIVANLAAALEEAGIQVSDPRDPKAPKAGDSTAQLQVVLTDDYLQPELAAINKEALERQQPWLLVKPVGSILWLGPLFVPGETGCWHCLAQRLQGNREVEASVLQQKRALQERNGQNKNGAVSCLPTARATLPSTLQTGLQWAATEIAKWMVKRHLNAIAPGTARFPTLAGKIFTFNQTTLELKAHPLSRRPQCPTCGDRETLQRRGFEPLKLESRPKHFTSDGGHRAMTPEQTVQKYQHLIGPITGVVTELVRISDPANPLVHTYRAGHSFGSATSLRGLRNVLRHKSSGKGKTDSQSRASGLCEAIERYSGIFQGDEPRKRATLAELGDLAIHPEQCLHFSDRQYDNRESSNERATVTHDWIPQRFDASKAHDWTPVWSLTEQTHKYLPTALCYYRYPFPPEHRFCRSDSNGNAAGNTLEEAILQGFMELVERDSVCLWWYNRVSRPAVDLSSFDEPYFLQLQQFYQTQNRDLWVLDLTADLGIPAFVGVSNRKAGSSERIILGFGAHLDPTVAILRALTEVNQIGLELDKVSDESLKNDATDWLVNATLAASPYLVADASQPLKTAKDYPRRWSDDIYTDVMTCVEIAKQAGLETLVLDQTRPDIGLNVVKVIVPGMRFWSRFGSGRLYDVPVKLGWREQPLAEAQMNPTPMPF
Put plainly: Isothermal titration calorimetry (VP-ITC), nucleotide injected into TruD in 150 mM NaCl, 10 mM HEPES pH 7.4, 1 mM TCEP at 20 or 25 °C, fitted to a one-site model. Format: binding. On the procedure: (§1) TruD solutions. The top panels show raw data representing the response to injections, the bottom panels show integrated heats of injections (!) and the best fit (— ) to the […]
(§2) nucleoside. […]
(§3) ITC experiments were carried out using a VP-ITC instrument (MicroCal) in TruD sample buffer (150 mM NaCl, 10 mM HEPES pH 7.4, 1 mM TCEP) at 20 or 25 °C.
(§4) Protein concentrations were determined using absorbance at 280 nm and predicted extinction coefficients (ProtParam, ExPASy) used. The concentration of PatEY53A, which lacks absorbance at 280 nm, was based on absorbance at 230 nm. All solutions were dialyzed overnight. Nucleotides and the #25 peptide were dissolved in TruD sample buffer and the pH was adjusted with small amounts of 1 M NaOH to match the buffer. Cell and syringe solutions were degassed at 18 or 23 °C for 15 min.
Titrations were performed as follows: one injection of 2 µl followed by injections of 5-10 µl at an injection speed of 0.5 µl/min. The stirring speed was 307 rpm; the delay between the injections was 4-6 min. […]
(§5) NMR experiments were performed at 10 °C on a Bruker DRX500 spectrometer equipped with a 5mm TXIz probe. […] Aliquots of 646 µM TruD were added to final concentrations of 50, 100 and 150 µM, and HSQCs were recorded after each addition. For heterocyclization monitoring, the samples contained 200 µM u-15N-PatE precursor peptide and were incubated at 10 °C with 5 µM TruD in heterocyclization buffer with 5% D2O, and spectra were recorded at progressively longer intervals (initially 0.5 h, then 1 h, then 2 h). […]
For sequential assignment, a 1.0 mM sample of u-13C, 15N-PatE precursor peptide in heterocyclization buffer was prepared. […] Equivalent spectra were recorded for fully heterocyclized u-13C, 15N-PatE (concentration 1.0 mM) and a sample where the enzymatic transformation was interrupted after 8 h by gel filtration on a Superdex S75 column (GE Healthcare) in TruD sample buffer (see ITC experimental section), thus allowing assignment of the reaction intermediate. All spectra were processed with NMRPipe ,$- and analyzed with CCPN Analysis 2.1 ,%-. […]
Background: ITC needs no label: the signal is the heat of the interaction.

For test [2], the target named is TruD. The test can be described thus: ITC, injection of nucleosides into TruD solutions. Format: binding, Prochloron spp. As to conditions: for Kd: one-site model. On the procedure:
as §1, §2, §3, §4
Titrations were performed as follows: one injection of 2 µl followed by injections of 5-10 µl at an injection speed of 0.5 µl/min. The stirring speed was 307 rpm; the delay between the injections was 4-6 min. To take into account heats of dilution, blank titrations were performed by injecting ligand solution into TruD sample buffer and the averaged heat of dilution was subtracted from the main experiment. Blank titrations were omitted in cases of saturated binding where the averaged residual signal of the last injections was used to determine the heat of dilution. Raw data were processed using MicroCal Origin software. […]
as §5
For sequential assignment, a 1.0 mM sample of u-13C, 15N-PatE precursor peptide in heterocyclization buffer was prepared. […] Equivalent spectra were recorded for fully heterocyclized u-13C, 15N-PatE (concentration 1.0 mM) and a sample where the enzymatic transformation was interrupted after 8 h by gel filtration on a Superdex S75 column (GE Healthcare) in TruD sample buffer (see ITC experimental section), thus allowing assignment of the reaction intermediate. All spectra were processed with NMRPipe ,$- and analyzed with CCPN Analysis 2.1 ,%-.
31P NMR experiments were performed at 10 °C on a Bruker AVANCE III spectrometer equipped with a 5mm BBFO+ (Smart) probe and required the substitution of sample buffer TCEP with DTT. […] 31P NMR spectra were recorded with broadband power-gated 1H decoupling and relaxation delay D1 = 1.5s. […]

Test [3] relates to TruD. The test can be described thus: Heterocyclization reactions analysed by MS (ESI, MALDI, fragmentation). Type of test: biochemical, Prochloron spp. The following applies: for use as nucleotide cofactor for heterocyclization of PatE2 by TruD: PatE2 with TruD, LC-MS and HSQC NMR of products. How it is done:
for 20 min followed by passage through a 0.45 "m filter. The cleared lysate was applied to a Ni-sepharose FF column (GE Healthcare) equilibrated with urea lysis buffer and protein eluted with urea lysis buffer containing 250 mM imidazole. The eluate was then supplemented with 10 mM DTT and incubated at room temperature for 30 min before size-exclusion chromatography (Superdex 75, GE Healthcare) in 150 mM NaCl, 10 mM HEPES pH 7.4, 1 mM TCEP. Peak fractions were pooled and […]
PatE for NMR studies was produced as above, except that E. coli were grown in M9 minimal medium ,*- prepared with 15NH4Cl (Sigma) and additionally with 13C6-glucose (Sigma) for doubly labeled protein. Cells were grown to an optical density at 600 nm of 0.6, at which point expression was induced by addition of 0.5 mM IPTG and grown over night at 30 °C.
Heterocyclization reactions
For all heterocyclization reactions for MS analysis, 100 µM substrate (PatE, PatE mutants and peptides) was incubated with 0.5 µM enzyme in heterocyclization buffer (150 mM NaCl, 10 mM HEPES pH 7.4, 1 mM TCEP, 5 mM ATP, 5 mM MgCl2) for 60 min, 70 min or 16 h at 37 °C. Samples were analyzed by ESI or MALDI MS (LCT, Micromass or 4800 MALDI TOF/TOF Analyzer, ABSciex). […]
For heterocyclization reactions to be monitored by NMR the PatE concentration was increased to 200 µM and 5 µM TruD was used and the incubation temperature reduced to 10 °C. For reaction endpoints analyzed by 31P NMR samples were […]
The assay is based on coupling the TruD-dependent formation of AMP to the lactate dehydrogenase oxidation decay of NADH with NADH concentration monitored by 340 nm absorbance. […]
each added to the assay in this order. […] The decay of NADH concentration were recorded for 40 min and calculated by using extinction coefficient for NADH (#340 = […]
MALDI MS was acquired using a 4800 MALDI TOF/TOF Analyzer (ABSciex, Foster City, CA) equipped with a Nd:YAG 355 nm laser in linear mode and calibrated using the [M+H]+ and [M+2H]2+ peaks of ubiquitin. The spot was analyzed in positive MS mode between 3000 and 10000 m/z, by averaging 1000 laser spots. […]

Where [4] appears, read: VP-ITC, 150 mM NaCl, 10 mM HEPES pH 7.4, 1 mM TCEP, 20 or 25 °C, read-out: KD.

With `Nc1ncnc2c1ncn2[C@@H]1O[C@H](COP(=O)(O)OP(=O)(O)O)[C@@H](O)[C@H]1O` [ADP, adenosine 5'-diphosphate], the Kd at TruD [1] (read-out: KD) was found to be 20 µM. Consider `Nc1ncnc2c1ncn2[C@@H]1O[C@H](COP(=O)(O)OP(=O)(O)O)[C@@H](O)[C@H]1O` [ADP], for which the Kd on TruD [2] (ADP decomposes slowly, only the rapidly emerging endothermic parts of the ITC signals analysed, read-out: apparent KD) is 20 µM. With `Nc1ncnc2c1ncn2[C@@H]1O[C@H](COP(=O)(O)O)[C@@H](O)[C@H]1O` [AMP, adenosine 5'-monophosphate], the Kd at TruD [1] (read-out: KD) is 12 µM. In the case of `Nc1ncnc2c1ncn2[C@@H]1O[C@H](COP(=O)(O)O)[C@@H](O)[C@H]1O` [AMP], on TruD [2] (setting [4]), the Kd came to 12 µM. Consider `Nc1ncnc2c1ncn2[C@@H]1O[C@H](COP(=O)(O)OP(=O)(O)OP(=O)(O)O)[C@@H](O)[C@H]1O` [ATP, adenosine 5'-triphosphate], for which the Kd at TruD [1] was determined as 19 µM. Consider `Nc1ncnc2c1ncn2[C@@H]1O[C@H](COP(=O)(O)OP(=O)(O)OP(=O)(O)O)[C@@H](O)[C@H]1O` [ATP], for which the Kd on TruD [2] (setting [4]) is 19 µM.

In the case of `Nc1nc2c(ncn2[C@@H]2O[C@H](COP(=O)(O)OP(=O)(O)OP(=O)(O)O)[C@@H](O)[C@H]2O)c(=O)[nH]1` [GTP], in the test with TruD [3], the “use as nucleotide cofactor for heterocyclization of PatE2 by TruD” value is on record as “can catalyze heterocyclization of cysteine”. On to `Cc1cn([C@H]2C[C@H](O)[C@@H](COP(=O)(O)OP(=O)(O)OP(=O)(O)O)O2)c(=O)[nH]c1=O` [dTTP], for which, in the test with TruD [2] (injection into a TruD solution), the “binding to TruD in ITC experiments” value was “not report binding under these conditions; also recorded: does not bind”. For the same compound, in the test with TruD [3], the “use as nucleotide cofactor for heterocyclization of PatE2 by TruD” value is “can catalyze heterocyclization of cysteine”. In the case of “ITACITFC [core peptide, the eight-residue core peptide itself]”, the “processing (heterocyclization of cysteines) by TruD” value in the test with TruD [3] (100 µM substrate, 0.5 µM enzyme, 150 mM NaCl, 10 mM HEPES pH 7.4, 1 mM TCEP, 5 mM ATP, 5 mM MgCl2, 60 min, 70 min or 16 h at 37 °C, ESI or MALDI MS) was “No reaction”.
